From publication PMC8910629, “Design, Synthesis, and Anticancer Activity of a Selenium-Containing Galectin-3 and Galectin-9N Inhibitor” (International Journal of Molecular Sciences, 2022)
Values joined by “and” are separate entries in the source; they are usually repeats but may differ in a detail not shown here. Identical values can stand only once.

Columns and labels:
[1] = system: galectins; conditions: cited from earlier work
[2] = molecular target: T1, Gal-3^CRD (Homo sapiens, UniProt P17931); experiment: Isothermal titration calorimetry with Gal-3 CRD; type: binding; conditions: ITC, 298 K
T1 construct: The genes encoding Gal-3^CRD (amino acid residues 112–250); polyHis-tag (TEV-cleavable, from pETM11) (N); made in house; host or cells: Escherichia coli BL21(DE3)GOLD
Method: (§1) The two proteins were cloned into pETM11 expression vector with a N-terminal polyHis-tag that is removable by TEV protease. The recombinant vectors pETM11-gal3^CRD and pETM11-gal9^CRD were used to transform E. coli BL21(DE3)GOLD cells and a single colony was grown overnight at 37 °C in 20 mL of LB medium. In total, 10 mL of the saturated cultures were transferred in 1 L of LB medium and grown at 37 °C to 0.8 OD 600 nm before induction with IPTG (0.5 mM). The inductions were kept for 16 and for 3 h at 22 °C in the expression of Gal-3^CRD and Gal-9N^CRD, respectively. The cells were harvested by centrifugation, re-suspended in 30 mL of lysis buffer (20 mM NaP, 500 mM NaCl, 10 mM imidazole pH 7.0 for Gal-3^CRD and pH 7.5 Gal-9N^CRD), and sonicated. […] Elution was carried out with 300 mM imidazole. Fractions containing the recombinant protein were, finally, applied onto a Superdex 75 10/300 column (GE Healthcare), connected to an AKTA system (GE Healthcare) pre-equilibrated in 20 mM NaP, 150 mM NaCl pH 7.0 for the purification of Gal-3^CRD and pH 7.5 for Gal-9N^CRD.
(§2) The purified proteins were used to perform interaction studies. […] Before all titrations, molecules were dissolved in 20 mM NaP, 150 mM NaCl pH 7.0 (when the molecules were assayed against Gal-3^CRD) or pH 7.5 (for Gal-9N^CRD). The sample cell was filled with 280 μL of Gal-3^CRD or Gal-9N^CRD. Molecules were injected in a volume of 0.2 μL for the first injection and 1 μL for the next 39 injections using an injection interval of 150 s. The control experiment, obtained by injection of the same amount of each molecule in buffer solution, was subtracted to correct for heat production upon molecules dilution. All data were analyzed and fitted using the Microcal Origin version 7.0 software package. Binding enthalpy, dissociation constants, and stoichiometry were determined by fitting the data using a one-set-of-site-binding model.

[3] = molecular target: T2, Gal-9N^CRD (Homo sapiens, UniProt O00182); experiment: Isothermal titration calorimetry with Gal-9N CRD; type: binding; conditions: ITC
T2 construct: Gal-9N^CRD (amino acid residues 1–148) were cloned into the vector pETM11; polyHis-tag (TEV-cleavable, from pETM11) (N); made in house; host or cells: Escherichia coli BL21(DE3)GOLD
Method: as §1, §2

[4] = system: WM266 cells; experiment: Wound healing scratch assay; type: cell-based, human
Method: Analysis of cell migration in vitro has been carried out by using the wound healing scratch assay. WM266 cells were grown until they reached a confluent monolayer. After, they were linearly scratched with a pipette tip to generate a cell-free space. […] The area related to each incision was photographed at the time 0, 24, and 48 h using a phase contrast optical microscope with a 10× magnification (Zeiss). The distance between the edges of the incisions was measured by AxioVision Rel. 4.8 software and its mean value was determined as follows: wound closure (%) = 1 − (wound width tx/wound width t0) × 100. Bars depict mean ± SE of three independent experiments.

[5] = system: WM266 cells; experiment: Transwell invasion assay; type: cell-based, human; conditions: 24 h, SeDG
Method: To analyze cell invasion, the surface of a filter membrane of a transwell insert was coated with extracellular matrix (ECL) (Millipore). Cells (5 × 10^4) suspended in 100 μL of serum-free medium were incubated with various concentrations of molecules and successively they were seeded onto the upper compartment of the transwell, whereas the lower chambers were filled with medium containing 10% FCS [65]. After 24 h, the cells were fixed with 10% formalin and stained with crystal violet. The remaining cells in the upper side of the transwell were removed and cells on the undersurface of the filters, the invaded cells, were visualized and counted from six randomly selected fields (10× magnification) under a phase-contrast microscope with AxioVision Rel.

[6] = system: HuVec cells; experiment: Angiogenesis (capillary tube formation) assay; type: cell-based, human; conditions: SeDG at 2.5 mM
Method: Angiogenesis assay was performed by using “In Vitro Angiogenesis Assay Kit” (Merck, Burlington, MA, USA). Briefly, 100 μL of ECL were plated in a pre-cooled 96-well plate and incubated for 1 h at 37 °C. 10,000 cells (HuVec), suspended in EGM-2 [66], incubated with digalactosyl selenides, and seeded onto solidified matrix, according to manufacturer’s instructions. After 5–6 h of incubation at 37 °C, the tube formation was examined by means of a phase contrast optical microscope (Axiovert 200 Zeiss) at 10× magnification and the branch point number was calculated from 3 random fields per each treatment.

[7] = system: tumor cell proliferation; set-up: method as in doi:10.1039/D1QO00045D; conditions: even at 2 mM concentration; cited from earlier work
[8] = system: Gal-1; set-up: method as in PMID 27356186; conditions: cited from earlier work
[9] = system: Gal-3; conditions: cited from earlier work

T2 sequence (O00182 1-148): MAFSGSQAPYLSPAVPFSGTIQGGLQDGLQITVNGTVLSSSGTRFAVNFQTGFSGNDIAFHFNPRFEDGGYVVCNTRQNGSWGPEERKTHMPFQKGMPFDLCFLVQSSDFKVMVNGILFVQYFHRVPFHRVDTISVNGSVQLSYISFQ

In the case of `CC(=O)N[C@H]1C(O)O[C@H](CO)[C@@H](O[C@@H]2O[C@H](CO)[C@H](O)[C@H](O)[C@H]2O)[C@@H]1O` (some centres unmarked) [LacNAc, N-acetyllactosamine], the “binding affinities to galectins” value [1] is given as “high micromolar range”.

In the case of digalactosyl selenide [SeDG], the “n (stoichiometry)” value [2] is reported as 1.09 ± 0.05, the ΔG [2] is reported as -6.31 kcal/mol and the ΔH [2] is reported as -4.32 ± 0.27 kcal/mol. The “−TΔS” value [2] was -1.99 kcal/mol, the Kd ([2]; pH 7.0) was 20.2 ± 2.2 µM and the “n (stoichiometry)” value ([3]; 298 K) was 1.01 ± 0.05. The ΔH ([3]; 298 K) was -5.64 ± 0.36 kcal/mol, the “−TΔS” value ([3]; 298 K) was -1.46 kcal/mol and the Kd ([3]; 298 K, pH 7.5) was ~20 µM and 22.4 µM. For the same molecule, the wound closure ([4]; WM266, SeDG at 1 and 2.5 mM, 24 and 48 h, vs untreated) was “decreased the wound closure at all used concentrations and time intervals”, the “WM266 invasion through extracellular matrix” value [5] was “able to reduce the cells invasion but only at millimolar concentrations” and the “change of capillary tube formation” value [6] was “non-statistically significant change”. The “effect on tumor cell proliferation” value [7] was “unable to affect tumor cell proliferation”.

In the case of `OC[C@H]1O[C@@H](O[C@H]2[C@H](O)[C@@H](O)C(O)O[C@@H]2CO)[C@H](O)[C@@H](O)[C@H]1O` (mixture of isomers) [lactose], the “binding of lactose (functional integrity of protein)” value ([3]; Figure S2) is given as “able to bind lactose” and the “binding affinities to galectins” value [1] is given as “high micromolar range”.

In the case of `OC[C@H]1O[C@@H](S[C@@H]2O[C@H](CO)[C@H](O)[C@H](n3cc(-c4cccc(F)c4)nn3)[C@H]2O)[C@H](O)[C@@H](n2cc(-c3cccc(F)c3)nn2)[C@H]1O` [TD139], the binding affinity [8] is listed as “nanomolar affinity” and the binding affinity [9] is listed as “nanomolar affinity”.

For `OC[C@H]1O[C@@H](S[C@@H]2O[C@H](CO)[C@H](O)[C@H](O)[C@H]2O)[C@H](O)[C@@H](O)[C@H]1O` [TDG, β-D-galactopyranosyl-(1-1)-thio-β-D-galactopyranoside], the affinity to galectins [1] is given as “same affinity to galectins as lactose”.

B1: Gal-3^CRD: recombinant carbohydrate recognition domain of galectin 3 (residues 112–250), used as cell motility stimulator (protein, UniProt P17931 112-250, looked up, fragment)
chain: GPLIVPYNLPLPGGVVPRMLITILGTVKPNANRIALDFQRGNDVAFHFNPRFNENNRRVIVCNTKLDNNWGREERQSVFPFESGKPFKIQVLVEPDHFKVAVNDAHLLQYNHRVKKLNEISKLGISGDIDLTSASYTMI
modifications: carbohydrate recognition domain
notes: recombinant carbohydrate recognition domain of galectin 3 (residues 112–250), used as cell motility stimulator
For B1, the “cell migration (wound closure) vs control” value ([4]; WM266, 50 µM Gal-3^CRD) was “migrate more than in the control”.
